# Results: patent publication EP0307553B1, “Modified splenopentines, their process of preparation and their use” (priority 1987, dated 1989)
# Experiments:
# Coxsackievirus B4 = test: Histologically confirmed pancreatitis after Coxsackievirus infection; type: in vivo, Balb/c-Mäuse
# NMRI-Mäuse [1] = test: Antigen-specific IgM response against sheep erythrocytes in normal mice (Jerne plaque test, Fig. 1); type: in vivo; conditions: 3x at 24 h intervals, 0,5 mg/kg, independent of route of application
# Source text: (§1) Der Einfluß von DAc-SP5 und immunsuppressiv wirkenden Verbindungen auf die Antigen-spezifische IgM-Antwort bei Mäusen wurde untersucht. Die erhaltenen Ergebnisse sind in den Fig.1 und 2 dargestellt.
# Tiere: männliche NMRI-Mäuse (Koloniezucht) im Alter von 2-2,5 Monaten. Methodik des Jerne-Plaquetests entsprechend R. Eckert und G. Pasternak, Acta biol. med. germ. 31: 127-137 (1973), n= 16 (NaCl-Kontrolle), n= 8 (DAc-SP5-Versuche).
# [2] = Histopathological lung changes after infection, hamster; type: in vivo, syrischen Hamster; conditions: Hamster (TCID₅₀ = 2 x 10^3,5)
# [3] = tested on: HIV-infizierten Patienten; test: Therapy of HIV-infected patients
# [4] = tested on: Monocyten bzw. Lymphocytensubpopulationen; test: Cytofluorimetric quantification of monocytes and lymphocyte subpopulations in a patient with secondary immunodeficiency; type: in vivo, Patientin; conditions: for DR^+-Monocyten (Gpt/l): before treatment 0,02, normal 0 -0,6; for CD 4 (Gpt/l): before treatment 0,03, normal 0,6 - 1,3; for CD 3 (Gpt/l): before treatment 0,04, normal 1,0 - 2,0; for Lymphocyten (Gpt/l): before treatment 0,28, normal 1,5 - 3,5; for CD 4/ CD 8: before treatment 0,58, normal 1,5 - 3,0; for DR^+-Monocyten (%): before treatment 16, normal 65 - 90
# [5] = Histopathological lung changes after infection, mouse; type: in vivo, Maus (Balb/c); conditions: Maus (TCID = 10^3,5)
# männlichen Balb/c-Mäusen = test: Chronic alcohol intoxication: parameters of the immune system; type: in vivo, Mäuse; conditions: 5x daily before test, n=40
# NMRI-Mäuse [6] = test: Chemically induced suppression of the humoral immune response (cyclophosphamide, dexamethasone; Fig. 2); type: in vivo
# Source text: as §1
# DAc-SP5 rekonstituiert bereits durch wenige aufeinanderfolgende Applikationen die chemisch induzierts Suppression der humoralen Immunantwort.
# [7] = tested on: Knochenmark-stammzellen von C57 Bl-Mäusen; test: Colony formation test: mouse bone marrow stem cells co-cultured with human leukocytes in agar; type: cell-based; conditions: without DAc-SP5 = 100 %
# Milzzellen/Ratte = test: Radioligand binding study, rat spleen cells
# [8] = therapy before infection: 0,5 mg/kg s.c. 3 x per week during 2 weeks before infection
# [9] = therapy during infection: 0,5 mg/kg s.c. daily over 5 days from day of infection
# [10] = HIV-infected patients (Tab. 6.1.)
# [11] = 15 % Ethanol over 1,5 months + 0,1 mg DAc-SP5 i.p.
# [12] = no Ethanol, 0,1 mg DAc-SP5 i.p.
substance,measurement,setting,value
(N^α-Acetyl-arginyl)(N^ε-acetyl-lysyl)glutamylvalyltyrosin [DAc-SP5],"Tiere mit Pankreatitis (in %, n = 10-15)","Coxsackievirus B4; Infektionsdosis (TCID₅₀) 10³, therapy during infection: 0,5 mg/kg s.c. daily over 5 days from day of infection",0%
same,"Tiere mit Pankreatitis (in %, n = 10-15)","Coxsackievirus B4; Infektionsdosis (TCID₅₀) 10⁴, therapy before infection: 0,5 mg/kg s.c. 3 x per week during 2 weeks before infection",80%
same,"Tiere mit Pankreatitis (in %, n = 10-15)","Coxsackievirus B4; Infektionsdosis (TCID₅₀) 10⁴, therapy during infection: 0,5 mg/kg s.c. daily over 5 days from day of infection",0%
same,"Tiere mit Pankreatitis (in %, n = 10-15)","Coxsackievirus B4; Infektionsdosis (TCID₅₀) 10⁵, therapy before infection: 0,5 mg/kg s.c. 3 x per week during 2 weeks before infection",100%
same,"Tiere mit Pankreatitis (in %, n = 10-15)","Coxsackievirus B4; Infektionsdosis (TCID₅₀) 10⁵, therapy during infection: 0,5 mg/kg s.c. daily over 5 days from day of infection",60%
same,"Tiere mit Pankreatitis (in %, n = 10-15)","Coxsackievirus B4; Infektionsdosis (TCID₅₀) 10⁶, therapy before infection: 0,5 mg/kg s.c. 3 x per week during 2 weeks before infection",100%
same,"Tiere mit Pankreatitis (in %, n = 10-15)","Coxsackievirus B4; Infektionsdosis (TCID₅₀) 10⁶, therapy during infection: 0,5 mg/kg s.c. daily over 5 days from day of infection",100%
same,Stärke und Kinetik der IgM-Antwort von Mäusen gegen Schafserythrocyten,NMRI-Mäuse [1],keinen siknifikanten Einfluß
same,Anzahl der Tiere mit histopathologischem Lungenbefund (%),[2]; [8],100%
same,Anzahl der Tiere mit histopathologischem Lungenbefund (%),[2]; [9],10%
same,CD4⁺/CD8⁺-Verhältnisses,[3]; [10],Verbesserung
same,Gesamtlymphocytenzahl,[3]; [10],Anhebung der Gesamtlymphocytenzahl in den Kontrollbereich
same,Nebenwirkungen,"[3]; HIV-infected patients, after 16 weeks of therapy",keine Nebenwirkungen
same,DR^+-Monocyten (Gpt/l),[4]; 2 weeks of therapy,"0,08 Gpt/l"
same,CD 4 (Gpt/l),[4]; 2 weeks of therapy,"0,29 Gpt/l"
same,CD 3 (Gpt/l),[4]; 2 weeks of therapy,"0,39 Gpt/l"
same,Lymphocyten (Gpt/l),[4]; 2 weeks of therapy,"0,84 Gpt/l"
same,CD 4/ CD 8,[4]; 2 weeks of therapy,"2,3"
same,DR^+-Monocyten (%),[4]; 2 weeks of therapy,22%
same,DR^+-Monocyten (Gpt/l),[4]; 3 weeks of therapy,"0,26 Gpt/l"
same,CD 4 (Gpt/l),[4]; 3 weeks of therapy,"0,34 Gpt/l"
same,CD 3 (Gpt/l),[4]; 3 weeks of therapy,"0,55 Gpt/l"
same,Lymphocyten (Gpt/l),[4]; 3 weeks of therapy,"0,74 Gpt/l"
same,CD 4/ CD 8,[4]; 3 weeks of therapy,"2,2"
same,DR^+-Monocyten (%),[4]; 3 weeks of therapy,62%
same,DR^+-Monocyten (Gpt/l),[4]; 4 weeks of therapy,"0,60 Gpt/l"
same,CD 4 (Gpt/l),[4]; 4 weeks of therapy,"0,38 Gpt/l"
same,CD 3 (Gpt/l),[4]; 4 weeks of therapy,"0,67 Gpt/l"
same,Lymphocyten (Gpt/l),[4]; 4 weeks of therapy,"0,83 Gpt/l"
same,CD 4/ CD 8,[4]; 4 weeks of therapy,"2,4"
same,DR^+-Monocyten (%),[4]; 4 weeks of therapy,72%
same,Anzahl der Tiere mit histopathologischem Lungenbefund (%),[5]; [8],100%
same,Anzahl der Tiere mit histopathologischem Lungenbefund (%),[5]; [9],0%
same,% phagocytierende Peritonealzellen,männlichen Balb/c-Mäusen; [11],"47,5±1,7%"
same,Milzmasse (mg),männlichen Balb/c-Mäusen; [11],"82,0±5,6 mg"
same,Phagocytoseindex,männlichen Balb/c-Mäusen; [11],"4,5±0,1"
same,Plaque-bildende Zellen der Milz pro 10⁶ Zellen (Jerne-Plaquetest),männlichen Balb/c-Mäusen; [11],"214,3±5,9 pro 10⁶ Zellen"
same,Thymusmasse (mg),männlichen Balb/c-Mäusen; [11],"29,0±2,2 mg"
same,% phagocytierende Peritonealzellen,männlichen Balb/c-Mäusen; [12],"75,0±2,6%"
same,Milzmasse (mg),männlichen Balb/c-Mäusen; [12],"95,0±7,1 mg"
same,Phagocytoseindex,männlichen Balb/c-Mäusen; [12],"4,9±0,15"
same,Plaque-bildende Zellen der Milz pro 10⁶ Zellen (Jerne-Plaquetest),männlichen Balb/c-Mäusen; [12],"285,0±11,3 pro 10⁶ Zellen"
same,Thymusmasse (mg),männlichen Balb/c-Mäusen; [12],"40,0±3,0 mg"
same,Suppression der Antigen-spezifischen IgM-Antwort nach Cyclophosphamid,"NMRI-Mäuse [6]; Cyclophosphamid 7,2 mg/Tier i. p. once, DAc-SP5 0,5 mg/kg s. c. on the 4 following days",teilweise rekonstituiert
same,Reduktion der Antigen-spezifischen IgM-Antwort durch Dexamethason,"NMRI-Mäuse [6]; Dexamethason 0,2 or 0,08 mg/Tier i. p., DAc-SP5 0,5 mg/kg s. c. on the two following days",vollständig rekonstituiert
same,"Zell-""Kolonien"" pro 10^5 Knochenmarkzellen, Prozentuale Angabe","[7]; leukocytes of Kontroll-personen, Exp. A, 1 µg DAc-SP5 per 1 ml agar",99%
same,"Zell-""Kolonien"" pro 10^5 Knochenmarkzellen, Prozentuale Angabe","[7]; leukocytes of Kontroll-personen, Exp. A, 2 µg DAc-SP5 per 1 ml agar",98%
same,"Zell-""Kolonien"" pro 10^5 Knochenmarkzellen, Prozentuale Angabe","[7]; leukocytes of Kontroll-personen, Exp. A, 10 µg DAc-SP5 per 1 ml agar",114%
same,"Zell-""Kolonien"" pro 10^5 Knochenmarkzellen, Prozentuale Angabe","[7]; leukocytes of Kontroll-personen, Exp. A, 20 µg DAc-SP5 per 1 ml agar",125%
same,"Zell-""Kolonien"" pro 10^5 Knochenmarkzellen, Prozentuale Angabe","[7]; leukocytes of Kontroll-personen, Exp. B, 1 µg DAc-SP5 per 1 ml agar",135%
same,"Zell-""Kolonien"" pro 10^5 Knochenmarkzellen, Prozentuale Angabe","[7]; leukocytes of Kontroll-personen, Exp. B, 2 µg DAc-SP5 per 1 ml agar",136%
same,"Zell-""Kolonien"" pro 10^5 Knochenmarkzellen, Prozentuale Angabe","[7]; leukocytes of Kontroll-personen, Exp. B, 10 µg DAc-SP5 per 1 ml agar",147%
same,"Zell-""Kolonien"" pro 10^5 Knochenmarkzellen, Prozentuale Angabe","[7]; leukocytes of Kontroll-personen, Exp. B, 20 µg DAc-SP5 per 1 ml agar",137%
same,"Zell-""Kolonien"" pro 10^5 Knochenmarkzellen, Prozentuale Angabe","[7]; leukocytes of Patienten (Systemischer Lupus Erythe-matodes), Exp. A, 1 µg DAc-SP5 per 1 ml agar",180%
same,"Zell-""Kolonien"" pro 10^5 Knochenmarkzellen, Prozentuale Angabe","[7]; leukocytes of Patienten (Systemischer Lupus Erythe-matodes), Exp. A, 2 µg DAc-SP5 per 1 ml agar",316%
same,"Zell-""Kolonien"" pro 10^5 Knochenmarkzellen, Prozentuale Angabe","[7]; leukocytes of Patienten (Systemischer Lupus Erythe-matodes), Exp. A, 10 µg DAc-SP5 per 1 ml agar",270%
same,"Zell-""Kolonien"" pro 10^5 Knochenmarkzellen, Prozentuale Angabe","[7]; leukocytes of Patienten (Systemischer Lupus Erythe-matodes), Exp. A, 20 µg DAc-SP5 per 1 ml agar",256%
same,"Zell-""Kolonien"" pro 10^5 Knochenmarkzellen, Prozentuale Angabe","[7]; leukocytes of Patienten (Systemischer Lupus Erythe-matodes), Exp. B, 2 µg DAc-SP5 per 1 ml agar",873%
same,"Zell-""Kolonien"" pro 10^5 Knochenmarkzellen, Prozentuale Angabe","[7]; leukocytes of Patienten (Systemischer Lupus Erythe-matodes), Exp. B, 10 µg DAc-SP5 per 1 ml agar",642%
same,"Zell-""Kolonien"" pro 10^5 Knochenmarkzellen, Prozentuale Angabe","[7]; leukocytes of Patienten (Systemischer Lupus Erythe-matodes), Exp. B, 20 µg DAc-SP5 per 1 ml agar",438%
³H-Splenopentin [³H-SP5],"Radioligand-Dissoziationskonstante (KD, M)",Milzzellen/Ratte,keine verdrängbare Bindung
